The target in assay [1] is T1, human AR (Homo sapiens, UniProt P10275).
T1 construct: purchased Indigo Biosciences
T1 sequence (P10275 1-920): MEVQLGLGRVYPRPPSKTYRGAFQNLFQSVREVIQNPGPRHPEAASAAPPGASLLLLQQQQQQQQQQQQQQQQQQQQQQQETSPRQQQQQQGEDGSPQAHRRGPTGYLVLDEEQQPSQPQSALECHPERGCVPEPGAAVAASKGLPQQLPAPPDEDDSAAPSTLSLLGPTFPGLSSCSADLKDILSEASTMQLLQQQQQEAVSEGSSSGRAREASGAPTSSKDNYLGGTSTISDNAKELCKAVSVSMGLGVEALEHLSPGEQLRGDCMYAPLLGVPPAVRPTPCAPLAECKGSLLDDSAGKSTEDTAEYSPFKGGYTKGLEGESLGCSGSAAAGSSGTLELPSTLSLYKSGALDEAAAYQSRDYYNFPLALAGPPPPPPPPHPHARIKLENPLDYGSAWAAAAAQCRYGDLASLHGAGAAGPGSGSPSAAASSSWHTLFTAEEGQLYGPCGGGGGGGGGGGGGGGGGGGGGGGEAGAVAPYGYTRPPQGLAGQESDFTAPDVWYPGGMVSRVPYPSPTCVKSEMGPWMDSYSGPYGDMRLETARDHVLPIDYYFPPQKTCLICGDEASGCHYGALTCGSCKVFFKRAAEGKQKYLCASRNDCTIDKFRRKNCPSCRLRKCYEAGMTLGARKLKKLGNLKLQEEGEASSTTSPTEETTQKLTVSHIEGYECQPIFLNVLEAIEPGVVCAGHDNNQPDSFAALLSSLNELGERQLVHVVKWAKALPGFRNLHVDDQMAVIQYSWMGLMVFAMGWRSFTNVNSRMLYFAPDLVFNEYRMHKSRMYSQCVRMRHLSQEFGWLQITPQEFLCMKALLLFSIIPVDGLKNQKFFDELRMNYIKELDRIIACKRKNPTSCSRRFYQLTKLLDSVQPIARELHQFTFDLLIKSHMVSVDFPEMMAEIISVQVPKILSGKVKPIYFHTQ
Put plainly: human AR antagonist assay (Indigo Biosciences). In kind it is cell-based. The text has this: (§1) The activity of a compound can be determined using various known methods. For example, AR assays can be used. Such AR assays include binding assays using, for example, cells transfected with the human androgen receptor. Several cell based model systems that allow sensitive detection and monitoring of steroids or other compounds with AR bioactivity are known. Most cell based AR reporter models use transgenic gene constructs that include an androgen response element (ARE) that controls reporter gene (e.g., lucifersrase) expression. For example, a human AR Reporter Assay System is commercially available from Indigo Biosciecnes. The principle application of such an assay product is to quantify functional activities, either agonist or antagonist, that a compound may exert against the human androgen receptor. […] In addition, the anti-proliferative activity of a compound can be determined using various known methods, including in vitro and in vivo antiproliferative assays using cancer cell lines such as a prostate cancer cell line.
(§2) The activity of certain compounds were tested in a human AR agonist assay and a human AR antagonist assay (Indigo Biosciences).

For the next assay, the target named is T2, androgen receptor (Homo sapiens, UniProt P10275).
T2 sequence (P10275 1-920): T1 sequence (P10275 1-920)
Put plainly: Ki of Table A (method not described; AR binding assays mentioned generally).
From the text: as §1

Assay [2] has as its target T1, human AR. The experiment in a line: human AR agonist assay (Indigo Biosciences). It counts as cell-based.
From the text: as §1, §2

[3] abbreviates: Table A, values match the human AR antagonist assay.

The compound `CC(C)(O)C(=O)Nc1ccc([N+](=O)[O-])c(C(F)(F)F)c1` [hydroxyflutamide, reference compound] returned a HillSlope on human AR [1] (Table 4, antagonist mode) of 1.282.

On human AR [1] (Table 4, antagonist mode), `C[C@]12CCC3=C(CC[C@@H]4CC(=O)CC[C@]34C)[C@@]13C[C@H]3[C@@H](O)C2` [Compound 203] displayed a HillSlope of 1.202 and an IC50 of 1.18 µM. Besides, the midpoint of inhibition on human AR [1] (setting [3]), the IC50, lay at 1.18 µM.

Consider `C[C@]12CCC(=O)C=C1CCC1=C2CC[C@]2(C)C[C@H](O)[C@@H]3C[C@@]132` [Compound 201], for which the HillSlope at human AR [1] (Table 4, antagonist mode) turned out to be 1.375. Also, the IC50 against human AR [1] (setting [3]) was 0.218 µM. On androgen receptor, this compound returned a Ki of 1.4 µM.

On to `C[C@]12CC[C@@]3(C)C(=C1C[C@H](O)C2)CC[C@H]1CC(=O)CC[C@@H]13` [Compound 109], for which the half-inhibitory concentration (IC50) on human AR [1] (setting [3]) was found to be 6.8 µM.

With `C[C@]12CC[C@@]3(C)C(=C1C[C@@H](O)C2)CC[C@H]1CC(=O)CC[C@@H]13` [Compound 106], on human AR [1] (setting [3]), the IC50 was found to be 1.8 µM.

Regarding `C[C@]12CC[C@@]3(C)C(=C1C[C@H](O)C2)CCC1=CC(=O)CC[C@@H]13` [Compound 103, (9R,10S,13R,16R)-16-hydroxy-9,13-dimethyl-1,2,6,7,9,10,11,12,13,15,16,17-dodecahydro-3H-cyclopenta[a]phenanthren-3-one], at human AR [2], it took 8950 µM to reach a half-maximal effect (EC50).

As for `C[C@]12CCC3=C(CC[C@H]4CC(=O)CC[C@]34C)[C@@]13C[C@H]3[C@@H](O)C2` [Compound 202, (2S,2aR,3aR,5aS,9aS,11aR)-2-hydroxy-9a, 11a-dimethyl-1,2a,3,4,5a,6,8,9,9a,10,11,11a-dodecahydro-2H-cyclopropa[1,5]cyclopenta[1,2-a]phenanthren-7(5H)-one], at human AR [1] (Table 4, antagonist mode), the HillSlope is recorded as 1.360 and the IC50 stood at 0.0605 µM. The compound also gave an IC50 against human AR [1] (setting [3]) of 0.061 µM. The same compound displayed a Ki at androgen receptor of 0.837 µM.

(Values after patent US20240199683A1, “ANDROGEN RECEPTOR MODULATORS” (priority 2021, published 2024).)
